Assay results from patent US11173146B2, “Selective activators of the intermediate conductance CA2+activated K+ channel KCa3.1 and their methods of use” (The Regents of the University of California, priority 2014, dated 2021).

Experiments:
hKCa2.1 = hKCa2.1 (Homo sapiens, UniProt P0DP23+Q92952); experiment: Whole-cell patch-clamp KCa2.1 activation (HEK-293)
Description: Cells, Cell lines and Clones.
Electrophysiology. Experiments were conducted either manually with an EPC-10 amplifier (HEKA, Lambrecht/Pfalz, Germany) or on a QPatch-16 automated electrophysiology platform (Sophion Biosciences, Denmark). […] Patch pipettes were pulled from soda lime glass (micro-hematocrit tubes, Kimble Chase, Rochester, N.Y.) and had resistances of 2-3 MΩ. […] Free Ca^2+ concentrations were calculated with MaxChelator assuming a temperature of 25° C., a pH of 7.2 and an ionic strength of 160 mM. […] Na^+ aspartate Ringer was used as an external solution (in mM): 160 Na^+ aspartate, 4.5 KCl, 2 CaCl2, 1 MgCl2, 5 HEPES, pH 7.4, 290-310 mOsm. Both KCa2 and KCa3.1 currents were elicited by 200-ms voltage ramps from −120 mV to 40 mV applied every 10 sec and the fold-increase of slope conductance at −80 mV by drug taken as a measure of channel activation.
For automated electrophysiology experiments cells were grown to ˜70% confluency, rinsed in sterile PBS containing 0.02% EDTA, and lifted with 2 mL of TrypLE™ Express (Gibco, Grand Island, N.Y.) for ˜2 min. […] Current slopes (in ampere per sec) were measured using the SophionQPatch software and exported to Microsoft Excel and Origin 7.0 (OriginLab Corp. MA) for analysis.

KCa3.1 = KCa3.1 (Homo sapiens, UniProt O15554+P0DP23); experiment: Inside-out patch Ca2+ concentration-response of KCa3.1
Excerpt: Symmetrical k^+ was used to obtain larger currents. […] Cells were clamped to a holding potential of at 0 mV and KCa currents were elicited by 200-ms voltage-ramps from −80 to 80 mV applied every 10 sec.

Cc1cc2nc(N)oc2c2ccccc12 [SKA-121, 5-Methylnaphtho[2,1-d]oxazol-2-amine] was tested, and the EC50 (hKCa2.1) was 8.7 ± 1.6 µM, the “Hill coefficient nH, KCa2.1 concentration-response curve” value (hKCa2.1; FIG. 4 legend) was 4.1 and the “maximal achievable KCa3.1 current” value (KCa3.1; 1 μM SKA-121, at 1 and 10 μM Ca2+) was “increased the maximal achievable current”. For the same compound, the “Hill coefficient of the Ca2+ concentration-response curve” value (KCa3.1; in presence of 1 μM SKA-121) was roughly 3.
